# Data as given in PubChem BioAssay (NCI).
#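 Each compound was tested at five concentrations against cells in 96-well plates for 48 hours. TGI is the concentration that stops growth completely.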
# Assays:
# Experiment in all cases: NCI anticancer screen, dose series, 48 h
# SNB-78 CNS = system: SNB-78 CNS
# K-562 leukemia = system: K-562 leukemia
# SNB-19 CNS = system: SNB-19 CNS
# HCT-116 colon = system: HCT-116 colon
# NCI-H226 lung = system: NCI-H226 lung
# SK-MEL-2 melanoma = system: SK-MEL-2 melanoma
# HCC-2998 colon = system: HCC-2998 colon
# SF-539 CNS = system: SF-539 CNS
# DLD-1 colon = system: DLD-1 colon
# SNB-75 CNS = system: SNB-75 CNS
# OVCAR-4 ovarian = system: OVCAR-4 ovarian
# MALME-3M melanoma = system: MALME-3M melanoma
# M19-MEL melanoma = system: M19-MEL melanoma
# NCI-H522 lung = system: NCI-H522 lung
# TK-10 renal = system: TK-10 renal
# KM20L2 colon = system: KM20L2 colon
# SK-MEL-5 melanoma = system: SK-MEL-5 melanoma
# M14 melanoma = system: M14 melanoma
# SW-620 colon = system: SW-620 colon
# OVCAR-5 ovarian = system: OVCAR-5 ovarian
# SF-295 CNS = system: SF-295 CNS
# HL-60(TB) leukemia = system: HL-60(TB) leukemia
# HOP-18 NSCLC = system: HOP-18 NSCLC
# U251 CNS = system: U251 CNS
# SK-MEL-28 melanoma = system: SK-MEL-28 melanoma
# NCI-H23 lung = system: NCI-H23 lung
# CCRF-CEM leukemia = system: CCRF-CEM leukemia
# SF-268 CNS = system: SF-268 CNS
# ACHN renal = system: ACHN renal
# OVCAR-3 ovarian = system: OVCAR-3 ovarian
# SR leukemia = system: SR leukemia
# HOP-92 NSCLC = system: HOP-92 NSCLC
# DMS 273 small cell lung = system: DMS 273 small cell lung
# RPMI-8226 leukemia = system: RPMI-8226 leukemia
# EKVX NSCLC = system: EKVX NSCLC
# MOLT-4 leukemia = system: MOLT-4 leukemia
# IGROV1 ovarian = system: IGROV1 ovarian
# 786-0 renal = system: 786-0 renal
# HT29 colon = system: HT29 colon
# HCT-15 colon = system: HCT-15 colon
# LXFL 529 NSCLC = system: LXFL 529 NSCLC
# A549 NSCLC = system: A549 NSCLC
# SK-OV-3 ovarian = system: SK-OV-3 ovarian
# OVCAR-8 ovarian = system: OVCAR-8 ovarian
# LOX IMVI melanoma = system: LOX IMVI melanoma
# RXF 393 renal = system: RXF 393 renal
# UO-31 renal = system: UO-31 renal
# UACC-257 melanoma = system: UACC-257 melanoma
# NCI-H460 lung = system: NCI-H460 lung
# UACC-62 melanoma = system: UACC-62 melanoma
# SN12C renal = system: SN12C renal
# COLO 205 colon = system: COLO 205 colon
# XF 498 CNS = system: XF 498 CNS
# KM12 colon = system: KM12 colon
# MDA-MB-435 = system: MDA-MB-435
# DU-145 prostate = system: DU-145 prostate
# A498 renal = system: A498 renal
# HOP-62 NSCLC = system: HOP-62 NSCLC
# MDA-MB-231 breast = system: MDA-MB-231 breast
# PC-3 prostate = system: PC-3 prostate
# NCI/ADR-RES ovarian = system: NCI/ADR-RES ovarian
# MDA-N = system: MDA-N
# MCF7 breast = system: MCF7 breast
# HS 578T breast = system: HS 578T breast
# T-47D breast = system: T-47D breast
# BT-549 breast = system: BT-549 breast
# DMS 114 small cell lung = system: DMS 114 small cell lung
smiles,measurement,setting,value
COc1c(O)c2c3c(cc(C)cc3c1C(C)C)OC2,TGI,SNB-78 CNS,> 100 µM
same,TGI,K-562 leukemia,> 100 µM
same,TGI,SNB-19 CNS,> 100 µM
same,TGI,HCT-116 colon,> 100 µM
same,TGI,NCI-H226 lung,> 100 µM
same,TGI,SK-MEL-2 melanoma,> 100 µM
same,TGI,HCC-2998 colon,> 100 µM
same,TGI,SF-539 CNS,> 100 µM
same,TGI,DLD-1 colon,> 100 µM
same,TGI,SNB-75 CNS,> 100 µM
same,TGI,OVCAR-4 ovarian,> 100 µM
same,TGI,MALME-3M melanoma,> 100 µM
same,TGI,M19-MEL melanoma,> 100 µM
same,TGI,NCI-H522 lung,> 100 µM
same,TGI,TK-10 renal,> 100 µM
same,TGI,KM20L2 colon,> 100 µM
same,TGI,SK-MEL-5 melanoma,> 100 µM
same,TGI,M14 melanoma,> 100 µM
same,TGI,SW-620 colon,> 100 µM
same,TGI,OVCAR-5 ovarian,> 100 µM
same,TGI,SF-295 CNS,> 100 µM
same,TGI,HL-60(TB) leukemia,> 100 µM
same,TGI,HOP-18 NSCLC,> 100 µM
same,TGI,U251 CNS,> 100 µM
same,TGI,SK-MEL-28 melanoma,> 100 µM
same,TGI,NCI-H23 lung,> 100 µM
same,TGI,CCRF-CEM leukemia,> 100 µM
same,TGI,SF-268 CNS,> 100 µM
same,TGI,ACHN renal,> 100 µM
same,TGI,OVCAR-3 ovarian,> 100 µM
same,TGI,SR leukemia,> 100 µM
same,TGI,HOP-92 NSCLC,> 100 µM
same,TGI,DMS 273 small cell lung,> 100 µM
same,TGI,RPMI-8226 leukemia,> 100 µM
same,TGI,EKVX NSCLC,> 100 µM
same,TGI,MOLT-4 leukemia,> 100 µM
same,TGI,IGROV1 ovarian,> 100 µM
same,TGI,786-0 renal,> 100 µM
same,TGI,HT29 colon,> 100 µM
same,TGI,HCT-15 colon,> 100 µM
same,TGI,LXFL 529 NSCLC,> 100 µM
same,TGI,A549 NSCLC,> 100 µM
same,TGI,SK-OV-3 ovarian,> 100 µM
same,TGI,OVCAR-8 ovarian,> 100 µM
same,TGI,LOX IMVI melanoma,> 100 µM
same,TGI,RXF 393 renal,> 100 µM
same,TGI,UO-31 renal,> 100 µM
same,TGI,UACC-257 melanoma,> 100 µM
same,TGI,NCI-H460 lung,> 100 µM
same,TGI,UACC-62 melanoma,> 100 µM
same,TGI,SN12C renal,> 100 µM
same,TGI,COLO 205 colon,> 100 µM
same,TGI,XF 498 CNS,> 100 µM
same,TGI,KM12 colon,> 100 µM
Cc1cc(NC(=O)NC(=O)c2ccccc2NC(=O)C(C)N)ccc1Oc1ncc(Br)cn1 (centres undefined),TGI,MDA-MB-435,0.257 µM
same,TGI,SNB-78 CNS,92.6 µM
same,TGI,K-562 leukemia,> 38.5 µM
same,TGI,DU-145 prostate,19.2 µM
same,TGI,A498 renal,0.529 µM
same,TGI,SNB-19 CNS,56.3 µM
same,TGI,HCT-116 colon,27.2 µM
same,TGI,NCI-H226 lung,2.88 µM
same,TGI,SK-MEL-2 melanoma,6.58 µM
same,TGI,HCC-2998 colon,4.38 µM
same,TGI,SF-539 CNS,0.0431 µM
same,TGI,DLD-1 colon,> 100 µM
same,TGI,SNB-75 CNS,2.47 µM
same,TGI,OVCAR-4 ovarian,36.7 µM
same,TGI,MALME-3M melanoma,33.4 µM
same,TGI,M19-MEL melanoma,> 100 µM
same,TGI,NCI-H522 lung,0.334 µM
same,TGI,TK-10 renal,39.4 µM
same,TGI,HOP-62 NSCLC,4.3 µM
same,TGI,KM20L2 colon,0.459 µM
same,TGI,SK-MEL-5 melanoma,9.49 µM
same,TGI,MDA-MB-231 breast,11.8 µM
same,TGI,M14 melanoma,3.71 µM
same,TGI,SW-620 colon,44.4 µM
same,TGI,PC-3 prostate,15.2 µM
same,TGI,NCI/ADR-RES ovarian,15.9 µM
same,TGI,OVCAR-5 ovarian,25.1 µM
same,TGI,MDA-N,0.148 µM
same,TGI,SF-295 CNS,4.91 µM
same,TGI,HL-60(TB) leukemia,0.558 µM
same,TGI,MCF7 breast,58.2 µM
same,TGI,U251 CNS,24.4 µM
same,TGI,SK-MEL-28 melanoma,37.4 µM
same,TGI,NCI-H23 lung,8.56 µM
same,TGI,CCRF-CEM leukemia,17.4 µM
same,TGI,SF-268 CNS,56.3 µM
same,TGI,HS 578T breast,1.49 µM
same,TGI,ACHN renal,27.4 µM
same,TGI,OVCAR-3 ovarian,0.111 µM
same,TGI,SR leukemia,45.3 µM
same,TGI,HOP-92 NSCLC,25.6 µM
same,TGI,DMS 273 small cell lung,> 32.7 µM
same,TGI,RPMI-8226 leukemia,61.5 µM
same,TGI,EKVX NSCLC,28.6 µM
same,TGI,MOLT-4 leukemia,52.2 µM
same,TGI,IGROV1 ovarian,29.7 µM
same,TGI,T-47D breast,29.6 µM
same,TGI,786-0 renal,9.56 µM
same,TGI,HT29 colon,3.51 µM
same,TGI,HCT-15 colon,39.1 µM
same,TGI,LXFL 529 NSCLC,> 100 µM
same,TGI,BT-549 breast,48.9 µM
same,TGI,A549 NSCLC,35.8 µM
same,TGI,SK-OV-3 ovarian,15.9 µM
same,TGI,OVCAR-8 ovarian,15.3 µM
same,TGI,LOX IMVI melanoma,33.5 µM
same,TGI,RXF 393 renal,0.776 µM
same,TGI,UO-31 renal,26.9 µM
same,TGI,UACC-257 melanoma,32.6 µM
same,TGI,NCI-H460 lung,19.2 µM
same,TGI,UACC-62 melanoma,15.5 µM
same,TGI,SN12C renal,19.5 µM
same,TGI,COLO 205 colon,0.852 µM
same,TGI,DMS 114 small cell lung,6.17 µM
same,TGI,KM12 colon,19.4 µM
